In US8846699B2, “Quinazoline derivatives as a multiplex inhibitor and method for the preparation thereof” (Hanmi Pharm. Co., Ltd., priority 2005, dated 2014):
pIC50: −log10 of the molar value.

What was measured:
[1] = system: colon and rectal cancer cell line, SW-620; assay: Inhibitory effect on growth of cancer cell line SW-620, SRB; type: cell-based; settings: not having overexpressed EGFR and EGFR2
Method in brief: (§1)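 Growth inhibition was measured by sulforhodamine-B staining (absorbance 570 nm) of TCA-fixed cells after 72 h compound exposure at 37 °C, 5% CO2. Test concentrations ran from 10 μM in 10-fold steps to 10^−4, with DMSO below 1%, in 10% FBS DMEM.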

[2] = system: skin cancer cell line, A431; assay: Inhibitory effect on growth of cancer cell line A431, SRB; type: cell-based; settings: overexpressed EGFR1 (HER-1)
Method in brief: as §1

[3] = system: Human Umbilical Vein Endothelial Cell (HUVEC); assay: Inhibitory effect on growth of human umbilical vein endothelial cell (HUVEC), MTS; type: cell-based; settings: 10 ng/ml VEGF, absorbance 490 nm
[4] = molecular target: EGFR1 (HER-1) (Homo sapiens (Human), UniProt P00533); assay: EGFR1 (HER-1) enzyme assay, fluorescence polarization; type: biochemical; settings: 100 μM ATP, poly(Glu, Tyr) substrate
[5] = molecular target: VEGFR2 (KDR) (Homo sapiens (Human), UniProt P35968); assay: VEGFR2 (KDR) enzyme assay, fluorescence polarization; type: biochemical; settings: 5 μM ATP, poly(Glu, Tyr) substrate
Method in brief: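 Buffer: 20 mM HEPES pH 7.4 with 5 mM MgCl2, 2 mM MnCl2 and 50 μM Na3VO4. Compound (0.0001–10 μM) was premixed 10 min with VEGFR2 (200 ng/10 μl), then poly(Glu,Tyr) substrate (10 ng/ml) and 5 μM ATP were added for 1 h at room temperature. EDTA-quenched samples were read by FP after 30 min with antibody and tracer.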

[6] = system: breast cancer cell line, SK-Br3; assay: Inhibitory effect on growth of cancer cell line SK-Br3, SRB; type: cell-based; settings: overexpressed EGFR2 (HER-2)
Method in brief: as §1

Chain of VEGFR2 (KDR) (P35968 20-1356): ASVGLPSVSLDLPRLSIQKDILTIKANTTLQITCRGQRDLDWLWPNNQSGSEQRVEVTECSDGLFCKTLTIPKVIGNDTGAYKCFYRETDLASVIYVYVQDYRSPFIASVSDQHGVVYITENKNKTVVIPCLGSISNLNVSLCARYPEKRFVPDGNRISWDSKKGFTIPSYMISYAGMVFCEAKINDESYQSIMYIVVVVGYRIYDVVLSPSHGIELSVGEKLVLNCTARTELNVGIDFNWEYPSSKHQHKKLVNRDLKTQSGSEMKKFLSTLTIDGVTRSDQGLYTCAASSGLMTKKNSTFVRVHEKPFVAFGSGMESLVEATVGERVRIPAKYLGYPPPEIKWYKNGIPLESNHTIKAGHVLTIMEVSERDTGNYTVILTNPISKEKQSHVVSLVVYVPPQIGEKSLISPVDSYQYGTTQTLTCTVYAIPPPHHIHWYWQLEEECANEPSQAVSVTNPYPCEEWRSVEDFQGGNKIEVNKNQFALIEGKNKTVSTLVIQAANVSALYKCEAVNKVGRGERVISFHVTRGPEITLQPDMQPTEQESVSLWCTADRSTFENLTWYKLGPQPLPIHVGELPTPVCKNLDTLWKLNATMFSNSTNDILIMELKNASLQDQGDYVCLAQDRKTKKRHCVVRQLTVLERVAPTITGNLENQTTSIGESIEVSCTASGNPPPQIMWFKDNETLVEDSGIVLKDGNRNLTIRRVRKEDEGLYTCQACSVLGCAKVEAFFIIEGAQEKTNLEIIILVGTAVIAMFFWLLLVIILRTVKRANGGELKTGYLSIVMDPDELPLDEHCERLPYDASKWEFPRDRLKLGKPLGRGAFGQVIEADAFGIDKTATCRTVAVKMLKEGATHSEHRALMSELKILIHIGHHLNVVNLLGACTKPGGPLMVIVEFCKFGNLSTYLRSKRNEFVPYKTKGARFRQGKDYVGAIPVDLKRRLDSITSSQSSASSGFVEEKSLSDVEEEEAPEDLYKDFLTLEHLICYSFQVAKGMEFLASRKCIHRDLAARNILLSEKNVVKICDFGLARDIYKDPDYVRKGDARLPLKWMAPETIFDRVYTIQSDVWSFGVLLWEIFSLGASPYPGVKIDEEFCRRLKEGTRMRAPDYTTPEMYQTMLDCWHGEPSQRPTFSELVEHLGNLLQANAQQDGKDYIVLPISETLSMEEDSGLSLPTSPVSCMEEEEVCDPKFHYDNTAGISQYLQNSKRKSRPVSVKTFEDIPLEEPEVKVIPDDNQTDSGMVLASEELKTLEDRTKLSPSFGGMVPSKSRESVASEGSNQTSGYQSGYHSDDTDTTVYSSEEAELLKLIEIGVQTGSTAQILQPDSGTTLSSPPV

| Compound | pIC50 ([1]; Homo sapiens, 72 h) | pIC50 ([2]; Homo sapiens, A-431, 72 h) | pIC50 ([3]; Homo sapiens, 96 h) | pIC50 [4] | pIC50 [5] | pIC50 ([6]; Homo sapiens, SK-BR-3, 72 h) | pIC50 ([1]; 72 hours) | pIC50 ([2]; 72 hours) | pIC50 ([3]; 96 hours) | pIC50 ([6]; 72 hours) |
| --- | --- | --- | --- | --- | --- | --- | --- | --- | --- | --- |
| C=CC(=O)Nc1cc2c(Nc3ccc(Br)cc3F)ncnc2cc1OC[C@@H](C)NC(C)=O [Example 82, (R)—N-[7-(2-acetylamino-propoxy)-4-(4-bromo-2-fluoro-phenylamino)-quinazolin-6-yl]-acrylamide] | 5.00 | 7.46 | 6.69 | 7.54 | 6.80 | 7.22 | – | – | – | – |
| C=CC(=O)Nc1cc2c(Nc3ccc(Br)cc3F)ncnc2cc1OCCNC(=O)CN(CC)CC [Example 167, N-{4-(4-bromo-2-fluoro-phenylamino)-7-[2-(2-diethylamino-acetylamino)-ethoxy]-quinazolin-6-yl}-acrylamide] | 5.00 | 7.38 | 6.97 | 7.59 | 6.34 | 6.99 | – | – | – | – |
| C=CC(=O)Nc1cc2c(Nc3ccc(Br)c(Cl)c3F)ncnc2cc1OCCNC(=O)NCCC [Example 169, N-{4-(4-bromo-3-chloro-2-fluoro-phenylamino)-7-[2-(3-propyl-ureido)-ethoxy]-quinazolin-6-yl}-acrylamide] | 5.04 | 7.46 | 6.63 | 7.59 | 6.89 | 7.17 | – | – | – | – |
| C=CC(=O)Nc1cc2c(Nc3ccc(Br)cc3F)ncnc2cc1OCC(C)NC(C)=O (stereo not drawn) [Example 81, N-[7-(2-acetylamino-propoxy)-4-(4-bromo-2-fluoro-phenylamino)-quinazolin-6-yl]-acrylamide] | 5.60 | 6.44 | 6.69 | 6.81 | 7.39 | 6.05 | – | – | – | – |
| C=CC(=O)Nc1cc2c(Nc3ccc(Br)cc3F)ncnc2cc1OCCNC(=O)C1CCCN1C(=O)CC (stereo not drawn) [Example 106, 1-propionyl-pyrrolidine-2-carboxylic acid {2-[6-acryloylamino-4-(4-bromo-2-fluoro-phenylamino)-quinazolin-7-yloxy]-ethyl}-amide] | 5.55 | 6.58 | 6.02 | 6.71 | 6.07 | 6.51 | – | – | – | – |
| C=CC(=O)Nc1cc2c(Nc3ccc(Br)c(Cl)c3F)ncnc2cc1OCCNC(C)=O [Example 141, N-[7-(2-acetylamino-ethoxy)-4-(4-bromo-3-chloro-2-fluoro-phenylamino)-quinazolin-6-yl]-acrylamide] | 5.00 | 7.92 | 7.18 | 7.89 | 7.25 | 7.43 | – | – | – | – |
| C=CC(=O)Nc1cc2c(Nc3ccc(OCc4cccnc4)c(Cl)c3)ncnc2cc1OCCNC(C)=O [Example 130, N-{7-(2-acetylamino-ethoxy)-4-[3-chloro-4-(pyridin-3-ylmethoxy)-phenylamino]-quinazolin-6-yl}-acrylamide] | 5.26 | 6.10 | 6.02 | 6.10 | 6.07 | 6.01 | – | – | – | – |
| C=CC(=O)Nc1cc2c(Nc3ccc(Br)cc3F)ncnc2cc1OCCNC(=O)CN [Example 57, N-[7-[2-(2-amino-acetylamino)-ethoxy]-4-(4-bromo-2-fluoro-phenylamino)-quinazolin-6-yl]-acrylamide] | 5.02 | 7.04 | 6.42 | 7.05 | 6.63 | 6.11 | – | – | – | – |
| C=CC(=O)Nc1cc2c(Nc3ccc(Br)cc3F)ncnc2cc1OCC(CC)NC(C)=O (stereo not drawn) [Example 86, N-[7-(2-acetylamino-butoxy)-4-(4-bromo-2-fluoro-phenylamino)-quinazolin-6-yl]-acrylamide] | 6.14 | 7.15 | 6.93 | 7.16 | 7.01 | 6.68 | – | – | – | – |
| C=CC(=O)Nc1cc2c(Nc3ccc(Br)cc3F)ncnc2cc1OCCNC(=O)C(F)(F)F [Example 28, N-[4-(4-bromo-2-fluoro-phenylamino)-7-[2-(2,2,2-trifluoro-acetylamino)-ethoxy]-quinazolin-6-yl]-acrylamide] | 5.01 | 7.12 | 6.01 | 7.64 | 6.30 | 6.63 | – | – | – | – |
| C=CC(=O)Nc1cc2c(Nc3ccc(Br)cc3F)ncnc2cc1OCCNC(=O)N1CCN(C(C)=O)CC1 [Example 95, 4-acetyl-piperazine-1-carboxylic acid {2-[6-acryloylamino-4-(4-bromo-2-fluoro-phenylamino)-quinazolin-7-yloxy]-ethyl}-amide] | 5.00 | 7.07 | 6.10 | 7.12 | 6.11 | 6.63 | – | – | – | – |
| C=CC(=O)Nc1cc2c(Nc3ccc(Br)cc3F)ncnc2cc1OCCNC(=O)NCCC [Example 34, N-{4-(4-bromo-2-fluoro-phenylamino)-7-[2-(3-propyl-ureido)-ethoxy]-quinazolin-6-yl}-acrylamide] | 5.59 | 7.46 | 6.17 | 7.59 | 6.34 | 7.17 | – | – | – | – |
| C=CC(=O)Nc1cc2c(Nc3ccc(Br)cc3F)ncnc2cc1OCCNC(=O)C(=C)C [Example 49, N-{2-[6-acryloylamino-4-(4-bromo-2-fluoro-phenylamino)-quinazolin-7-yloxy]-ethyl}-2-methyl-acrylamide] | 5.34 | 7.21 | 6.02 | 7.16 | 6.07 | 6.61 | – | – | – | – |
| C=CC(=O)Nc1cc2c(Nc3cc(Cl)c(Cl)cc3Cl)ncnc2cc1OCCNC(C)=O [Example 122, N-[7-(2-acetylamino-ethoxy)-4-(2,4,5-trichloro-phenylamino)-quinazolin-6-yl]-acrylamide] | 5.63 | 5.99 | 6.04 | 6.06 | 6.10 | 5.99 | – | – | – | – |
| N-{2-[6-acryloylamino-4-(4-bromo-2-fluoro-phenylamino)-quinazolin-7-yloxy]-ethyl}-4-dimethylamino-butylamide [Example 66] | – | – | – | 7.68 | 6.90 | – | 5.00 | 7.96 | 6.62 | 6.99 |
| C=CC(=O)Nc1cc2c(Nc3cc(Cl)c(Br)cc3F)ncnc2cc1OCCNC(C)=O [Example 133, N-[7-(2-acetylamino-ethoxy)-4-(4-bromo-5-chloro-2-fluoro-phenylamino)-quinazolin-6-yl]-acrylamide] | 5.63 | 7.77 | 6.37 | 7.82 | 6.38 | 7.19 | – | – | – | – |
| C=CC(=O)Nc1cc2c(Nc3ccc(Br)cc3F)ncnc2cc1OCCNC(=O)CO [Example 45, N-{4-(4-bromo-2-fluoro-phenylamino)-7-[2-(2-hydroxy-acetylamino)-ethoxy]-quinazolin-6-yl}-acrylamide] | 5.00 | 7.43 | 6.46 | 7.49 | 6.49 | 6.63 | – | – | – | – |
| N-{2-[6-acryloylamino-4-(4-bromo-2-fluoro-phenylamino)-quinazolin-7-yloxy]-ethyl}-malonic acid [Example 70] | – | – | – | 6.02 | 6.55 | – | 5.02 | 6.01 | 6.44 | 5.00 |
